Columns and labels:
[1] = target: T1, human CYP11B1 (Homo sapiens, UniProt P15538); assay: Inhibition of cortisol production in V79-B1 cells expressing human CYP11B1 (ELISA); assay type: cell-based; conditions: 11-deoxycortisol 100 nmol/L, 1 hour, unlabeled form, read-out: IC50 against cortisol production
T1 construct: expressed in transfected cells; host or cells: Chinese hamster lung-derived fibroblast V79 cells (V79-B1)
T1 sequence (P15538 25-503): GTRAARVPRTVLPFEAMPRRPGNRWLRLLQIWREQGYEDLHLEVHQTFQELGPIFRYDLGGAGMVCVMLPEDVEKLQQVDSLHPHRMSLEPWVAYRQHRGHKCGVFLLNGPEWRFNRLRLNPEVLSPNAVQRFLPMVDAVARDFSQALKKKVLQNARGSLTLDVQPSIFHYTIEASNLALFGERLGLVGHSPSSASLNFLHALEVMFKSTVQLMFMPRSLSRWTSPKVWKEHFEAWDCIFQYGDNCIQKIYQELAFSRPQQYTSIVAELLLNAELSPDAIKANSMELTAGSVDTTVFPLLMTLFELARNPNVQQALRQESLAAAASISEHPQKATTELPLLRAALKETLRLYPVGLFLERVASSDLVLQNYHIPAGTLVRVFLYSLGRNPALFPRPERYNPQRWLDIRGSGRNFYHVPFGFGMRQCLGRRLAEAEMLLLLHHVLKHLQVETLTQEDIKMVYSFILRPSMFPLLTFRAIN
Procedure: (§1) Chinese hamster lung-derived fibroblast V79 cells (obtained from European Collection of Cell Cultures (ECACC) via DS Pharma Biomedical Co., Ltd.) were allowed to express human CYP11B2 and human CYP11B1 to prepare V79-B2 and V79-B1, respectively. V79-B2 or V79-B1 was inoculated to a microplate and cultured overnight. Then, corticosterone and 11-deoxycortisol were added at final concentrations of 100 nmol/L into the culture supernatants of V79-B2 and V79-B1, respectively. At the same time, iodometomidate (IMTO) or the unlabeled form of PAY15, PAY21, PAY27, or PAY54 synthesized in Example 2, 5, 8, or 12 was added at a final concentration of 10^−4 to 10^3 nmol/L into the culture supernatants. One hour later, the culture supernatant of V79-B1 was recovered, and the concentration of cortisol, which is a metabolite of CYP11B1, was measured by enzyme-linked immunosorbent assay (ELISA). Four hours later, the culture supernatant of V79-B2 was recovered, and the concentration of aldosterone, which is a metabolite of CYP11B2, was measured by ELISA. […] IC50 against cortisol production/IC50 against aldosterone production was calculated and used as a selectivity factor for CYP11B2.

[2] = target: T2, CYP11B2 (Homo sapiens, UniProt P19099); assay: Inhibition of aldosterone production in V79-B2 cells expressing human CYP11B2 (ELISA); assay type: cell-based; parameters: expressed in transfected cells; host or cells: Chinese hamster lung-derived fibroblast V79 cells (V79-B2); conditions: for Selectivity factor: IC50 against cortisol production/IC50 against aldosterone production, selectivity factor for CYP11B2; for IC50: V79-B2 cells, corticosterone 100 nmol/L, 4 hours, unlabeled form, read-out: IC50 against aldosterone production; for selectivity factor compared with IMTO: selectivity factor for CYP11B2, Table 6
T2 sequence (P19099 25-503): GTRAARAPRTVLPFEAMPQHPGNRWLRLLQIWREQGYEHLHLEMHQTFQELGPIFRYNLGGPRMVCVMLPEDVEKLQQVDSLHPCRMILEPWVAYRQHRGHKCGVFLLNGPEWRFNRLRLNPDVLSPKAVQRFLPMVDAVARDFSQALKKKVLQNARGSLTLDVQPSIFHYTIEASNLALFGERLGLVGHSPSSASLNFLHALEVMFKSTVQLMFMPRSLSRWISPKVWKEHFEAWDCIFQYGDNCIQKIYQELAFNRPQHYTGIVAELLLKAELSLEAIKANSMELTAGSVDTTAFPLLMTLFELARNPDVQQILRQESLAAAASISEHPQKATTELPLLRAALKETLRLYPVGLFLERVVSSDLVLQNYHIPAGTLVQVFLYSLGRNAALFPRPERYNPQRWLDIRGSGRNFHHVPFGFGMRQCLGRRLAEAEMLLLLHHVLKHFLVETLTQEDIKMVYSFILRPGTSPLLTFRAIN
Procedure: as §1

[3] = Pharmacokinetic and distribution experiment (radioactivity in blood and excised organs after tail vein injection); assay type: in vivo; conditions: ddy mice; for Adrenal gland/Blood ratio / Adrenal gland/Kidney ratio / Adrenal gland/Liver ratio / Radioactivity Distribution, Adrenal gland / Radioactivity Distribution, Blood / Radioactivity Distribution, Heart / Radioactivity Distribution, Kidney / Radioactivity Distribution, Large intestine / Radioactivity Distribution, Liver / Radioactivity Distribution, Lung / Radioactivity Distribution, Pancreas / Radioactivity Distribution, Small intestine / Radioactivity Distribution, Spleen / Radioactivity Distribution, Stomach / Radioactivity Distribution, Thyroid: tail vein injection, 18.5 kBq (0.5 μCi)
Procedure: (§2) The HPLC fraction of [^125I]PAY15 obtained in Example 3 was concentrated and then diluted with saline. The resulting solution was used in administration. 100 μL of the solution (18.5 kBq (0.5 μCi)) was injected to the tail vein of each of five ddy mice (6 weeks old). Five minutes later, each mouse was decapitated, and blood was collected. Then, organs (adrenal gland, pancreas, heart, lung, stomach, small intestine, large intestine, liver, spleen, kidney, and thyroid gland) were excised. After measurement of their weights, the radioactivities of blood and each excised organ were measured. Also, the point in time when each mouse was decapitated was changed to 5, 15, 30, 60, and 120 minutes later to perform similar operation.
The HPLC fraction of [^125I]PAY21 obtained in Example 6 was concentrated and then diluted with saline. The resulting solution was used in administration to perform the same operation as in Evaluation 1.
as §2, with “[^18F]PAY27 obtained” for “The HPLC fraction of [^125I]PAY15 obtained”, “Example 10” for “Example 3”, “was” for “was concentrated and then”, “solution (14.8” for “solution (18.5”, “kBq (4” for “kBq (0.5”, “and thigh bone)” for “and thyroid gland)”
as §2, with “[^18F]PAY54 obtained” for “The HPLC fraction of [^125I]PAY15 obtained”, “Example 13” for “Example 3”, “was” for “was concentrated and then”, “solution (14.8” for “solution (18.5”, “kBq (4” for “kBq (0.5”, “and thigh bone)” for “and thyroid gland)”

O=C1CCc2cc(-c3cncc(OCCF)c3)cc3c2N1CCC3 [PAY27, 9-(5-(2-fluoroethyloxy)pyridin-3-yl)-1,2,6,7-tetrahydro-5H-pyrido[3,2,1-ij]quinolin-3-one]
IC50 [1]: 78.6 nM | Selectivity factor [2]: 81.42 | IC50 [2]: 0.97 nM | selectivity factor compared with IMTO [2]: higher than that of IMTO

O=C1CCc2cc(-c3cncc(OCCF)c3)cc3c2N1CC3 [PAY54, 8-(5-(2-fluoroethyloxy)pyridin-3-yl)-1,2,5,6-tetrahydro-4H-pyrrolo[3,2,1-ij]quinolin-4-one]
IC50 [1]: 13.1 nM | Selectivity factor [2]: 55.49 | IC50 [2]: 0.24 nM | selectivity factor compared with IMTO [2]: higher than that of IMTO

O=C1CCc2cc(-c3cncc([125I])c3)cc3c2N1CCC3 [[^125I]PAY15, 9-(5-[^125I]iodopyridin-3-yl)-1,2,6,7-tetrahydro-5H-pyrido[3,2,1-ij]quinolin-3-one]
radioactivity accumulation in the adrenal gland compared with blood and periadrenal tissues ([3]; at an early stage after administration): high radioactivity accumulation | Adrenal gland/Blood ratio ([3]; 5 min): 1.74 ± 0.12 | Adrenal gland/Kidney ratio ([3]; 5 min): 1.42 ± 0.03 | Adrenal gland/Liver ratio ([3]; 5 min): 1.70 ± 0.23 | Radioactivity Distribution, Adrenal gland ([3]; 5 min): 8.7 ± 1.7 % dose/g | Radioactivity Distribution, Blood ([3]; 5 min): 5.0 ± 1.2 % dose/g | Radioactivity Distribution, Heart ([3]; 5 min): 3.6 ± 0.8 % dose/g | Radioactivity Distribution, Kidney ([3]; 5 min): 6.1 ± 1.2 % dose/g | Radioactivity Distribution, Large intestine ([3]; 5 min): 1.9 ± 0.8 % dose/g | Radioactivity Distribution, Liver ([3]; 5 min): 5.1 ± 1.1 % dose/g | Radioactivity Distribution, Lung ([3]; 5 min): 7.4 ± 1.6 % dose/g | Radioactivity Distribution, Pancreas ([3]; 5 min): 4.0 ± 0.9 % dose/g | Radioactivity Distribution, Small intestine ([3]; 5 min): 3.7 ± 0.9 % dose/g | Radioactivity Distribution, Spleen ([3]; 5 min): 4.1 ± 0.8 % dose/g | Radioactivity Distribution, Stomach ([3]; 5 min): 3.5 ± 1.2 % dose/g | Radioactivity Distribution, Thyroid ([3]; 5 min): 71.6 ± 50.0 % dose/g | Adrenal gland/Blood ratio ([3]; 15 min): 1.18 ± 0.15 | Adrenal gland/Kidney ratio ([3]; 15 min): 1.24 ± 0.17 | Adrenal gland/Liver ratio ([3]; 15 min): 1.81 ± 0.07 | Radioactivity Distribution, Adrenal gland ([3]; 15 min): 7.3 ± 3.9 % dose/g | Radioactivity Distribution, Blood ([3]; 15 min): 4.9 ± 0.3 % dose/g | Radioactivity Distribution, Heart ([3]; 15 min): 2.6 ± 0.5 % dose/g | Radioactivity Distribution, Kidney ([3]; 15 min): 4.5 ± 0.4 % dose/g | Radioactivity Distribution, Large intestine ([3]; 15 min): 1.8 ± 0.2 % dose/g | Radioactivity Distribution, Liver ([3]; 15 min): 3.0 ± 0.3 % dose/g | Radioactivity Distribution, Lung ([3]; 15 min): 4.9 ± 0.3 % dose/g | Radioactivity Distribution, Pancreas ([3]; 15 min): 2.8 ± 0.1 % dose/g | Radioactivity Distribution, Small intestine ([3]; 15 min): 4.6 ± 0.9 % dose/g | Radioactivity Distribution, Spleen ([3]; 15 min): 3.2 ± 0.3 % dose/g | Radioactivity Distribution, Stomach ([3]; 15 min): 12.1 ± 2.0 % dose/g | Radioactivity Distribution, Thyroid ([3]; 15 min): 349.4 ± 115.9 % dose/g | Adrenal gland/Blood ratio ([3]; 30 min): 0.74 ± 0.40 | Adrenal gland/Kidney ratio ([3]; 30 min): 0.75 ± 0.20 | Adrenal gland/Liver ratio ([3]; 30 min): 1.82 ± 0.53 | Radioactivity Distribution, Adrenal gland ([3]; 30 min): 2.3 ± 1.2 % dose/g | Radioactivity Distribution, Blood ([3]; 30 min): 3.1 ± 0.3 % dose/g | Radioactivity Distribution, Heart ([3]; 30 min): 1.3 ± 0.1 % dose/g | Radioactivity Distribution, Kidney ([3]; 30 min): 3.5 ± 0.9 % dose/g | Radioactivity Distribution, Large intestine ([3]; 30 min): 1.6 ± 0.2 % dose/g | Radioactivity Distribution, Liver ([3]; 30 min): 1.5 ± 0.2 % dose/g | Radioactivity Distribution, Lung ([3]; 30 min): 3.6 ± 1.6 % dose/g | Radioactivity Distribution, Pancreas ([3]; 30 min): 1.7 ± 0.1 % dose/g | Radioactivity Distribution, Small intestine ([3]; 30 min): 4.0 ± 0.4 % dose/g | Radioactivity Distribution, Spleen ([3]; 30 min): 2.2 ± 0.3 % dose/g | Radioactivity Distribution, Stomach ([3]; 30 min): 25.0 ± 6.4 % dose/g | Radioactivity Distribution, Thyroid ([3]; 30 min): 486.5 ± 245.4 % dose/g | Adrenal gland/Blood ratio ([3]; 60 min): 0.82 ± 0.16 | Adrenal gland/Kidney ratio ([3]; 60 min): 0.84 ± 0.21 | Adrenal gland/Liver ratio ([3]; 60 min): 1.90 ± 0.47 | Radioactivity Distribution, Adrenal gland ([3]; 60 min): 1.7 ± 1.3 % dose/g | Radioactivity Distribution, Blood ([3]; 60 min): 2.9 ± 0.2 % dose/g | Radioactivity Distribution, Heart ([3]; 60 min): 1.0 ± 0.0 % dose/g | Radioactivity Distribution, Kidney ([3]; 60 min): 2.7 ± 0.6 % dose/g | Radioactivity Distribution, Large intestine ([3]; 60 min): 1.7 ± 0.5 % dose/g | Radioactivity Distribution, Liver ([3]; 60 min): 1.2 ± 0.1 % dose/g | Radioactivity Distribution, Lung ([3]; 60 min): 2.4 ± 0.1 % dose/g | Radioactivity Distribution, Pancreas ([3]; 60 min): 1.5 ± 0.1 % dose/g | Radioactivity Distribution, Small intestine ([3]; 60 min): 4.0 ± 0.4 % dose/g | Radioactivity Distribution, Spleen ([3]; 60 min): 1.6 ± 0.2 % dose/g | Radioactivity Distribution, Stomach ([3]; 60 min): 31.3 ± 11.2 % dose/g | Radioactivity Distribution, Thyroid ([3]; 60 min): 1298.8 ± 729.1 % dose/g | Adrenal gland/Blood ratio ([3]; 120 min): 0.86 ± 0.46 | Adrenal gland/Kidney ratio ([3]; 120 min): 0.87 ± 0.42 | Adrenal gland/Liver ratio ([3]; 120 min): 0.73 ± 0.42 | Radioactivity Distribution, Adrenal gland ([3]; 120 min): 2.1 ± 1.4 % dose/g | Radioactivity Distribution, Blood ([3]; 120 min): 2.3 ± 0.5 % dose/g | Radioactivity Distribution, Heart ([3]; 120 min): 0.8 ± 0.2 % dose/g | Radioactivity Distribution, Kidney ([3]; 120 min): 2.7 ± 1.6 % dose/g | Radioactivity Distribution, Large intestine ([3]; 120 min): 2.4 ± 1.0 % dose/g | Radioactivity Distribution, Liver ([3]; 120 min): 1.0 ± 0.2 % dose/g | Radioactivity Distribution, Lung ([3]; 120 min): 2.0 ± 0.4 % dose/g | Radioactivity Distribution, Pancreas ([3]; 120 min): 1.3 ± 0.3 % dose/g | Radioactivity Distribution, Small intestine ([3]; 120 min): 3.0 ± 0.6 % dose/g | Radioactivity Distribution, Stomach ([3]; 120 min): 27.4 ± 5.2 % dose/g | Radioactivity Distribution, Thyroid ([3]; 120 min): 1400.6 ± 695.3 % dose/g
